Measurements published in article PMC8667898, “Topo II inhibition and DNA intercalation by new phthalazine-based derivatives as potent anticancer agents: design, synthesis, anti-proliferative, docking, and in vivo studies” (Journal of Enzyme Inhibition and Medicinal Chemistry, 2021).

Tests used:
[1] = tested on: Calf thymus DNA; assay: DNA intercalation assay (DNA/methyl green colorimetric assay); assay type: binding; details: three independent experiments
Protocol: (§1) The data represented the mean of three independent experiments in triplicate and were expressed as means ± SD. […]
4.2.2. DNA intercalation assay (DNA/methyl green colorimetric assay)
Affinity of some compounds for DNA-binding was examined in vitro using DNA/methyl green assay using doxorubicin as a positive control. In this test, a mixture of methyl green (20 mg) and Calf thymus DNA (10 mg) (Sigma– Aldrich) were suspended in 0.05 M TrisHCl buffer (100 mL, pH 7.5) containing 7.5 mM MgSO4. This mixture was stirred continuously for 24 h at 37 °C. Then, ethanolic solution of the test compounds was pitted into the wells of a 96-well microtiter tray at a concentration of 10, 100 and 1000 µM. The excess solvent was removed from each well under vacuum, with subsequent addition of 200 µL of the DNA/methyl green solution. The test samples were incubated for 24 h in dark at ambient temperature. After that, absorbance of each sample was determined at 642.5–645 nm. In this test, the methyl green dye reversibly binds to DNA to form persistent colored complex of DNA/methyl green. This color still stables at neutral pH. When the DNA intercalators were added, the methyl green was displaced from DNA with addition of H2O molecule to the dye resulting in formation of the colorless carbinol leading to a decrease in spectrophotometric absorbance. ΔA value (the difference between DNA/methyl green complex and free cabinol) provides the simplest means for detecting the DNA-binding affinity and relative binding strength. IC50′s were determined by linear regression of data plotted on a semi -log scale and the data were compared with doxorubicin as standard DNA intercalator . […]

[2] = tested on: Solid Ehrlich Carcinoma (SEC); assay: In vivo antitumor activity against Solid Ehrlich Carcinoma; design: species or system Swiss albino mice; details: SEC-bearing mice, 5 mg/kg BW I.P.
Protocol: To examine the in vivo anticancer activity of compound 9d, adult female Swiss albino mice (30 mice) inoculated with I.P. injection of Solid Ehrlich Carcinoma (SEC) tumour cell lines in a volume of 0.2 ml physiological saline contains 1 × 10^6 viable cells for 24 h.
These mice were randomly divided into four groups (7 mice/group). […] Bodyweight and survival were recorded daily until the 24th day in both treated and control groups. At the end of the experiment, the blood of each group was collected under light anaesthesia for the estimation of hematological and biochemical assays. The anaesthetised animals were then sacrificed to evaluate of the antitumor activity and to conduct hematological, biochemical, and histopathological assays, Figure 3.
Adult female Swiss albino mice purchased from Theodor Bilharzia Research Institute, Giza, Egypt, with an average bodyweight of (18–23) g were used. Mice were housed under constant conditions of 12 h light/dark cycle in a […], with free access to standard laboratory mice food and water. All procedures related to care and maintenance of the animals were performed according to the international guiding principles for animal research and approved by the Faculty of Science, Suez Canal University bioethics and animal ethics committee (Approval number REC-07–2021).
Solid Ehrlich carcinoma (SEC) was purchased from the National Cancer Institute (Cairo University, Egypt). The tumour cell line was proliferated in mice through serial intraperitoneal (I.P.) transplantation of a volume of 0.2 ml physiological saline contains 1 × 10^6 viable cells for 24 h. SEC cells were collected 7 days after I.P. implantation. The harvested cells were diluted with saline to obtain a concentration of 5 × 10^6 viable SEC cells/mL. A volume of 0.2 ml saline contains 1 × 10^6 SEC cells that were I.P. implanted into each normal mouse. SEC cells (1 × 10^6 tumour cells/mouse) were implanted subcutaneously into the right thigh of the hind limb.
(§2) The experimental animals were randomly divided into four groups. Group 1 served as the normal saline control (5 ml/kg B.Wt., I.P.). Group 2 served as the SEC control (1 × 10^6 cells/mouse). Group 3 served as the compound-treated group (5 mg/kg B.Wt., I.P.). […] Bodyweight and survival were recorded daily until the 24th day in both treated and control groups. At the end of the experiment, the blood of each group was collected under light anaesthesia to the estimate of hematological and biochemical assays. The anaesthetised animals were then sacrificed for evaluation of the antitumor activity and histopathological examination.
It includes tumour volume, weight, and tumour inhibition ratio (TIR%). Time interval measurements of tumour volume using digital Vernier calliper (Tricle Brand, Shanghai, China). Measure tumour length and width using a clipper and then calculate tumour volume using formulations V = (L × W × W)/2, where V is tumour volume, W is tumour width, L is tumour length. While TIR% was calculated according to the following equation Tumor volume (Control)−Tumor volume (treated)/Tumor volume (control)× 100.

[3] = tested on: HCT-116 cells (colorectal carcinoma); assay: MTT anti-proliferative assay, HCT-116; assay type: cell-based, human; details: Homo sapiens, HCT-116, MTT, mean ± SD of three separate experiments; read-out: In vitro Cytotoxicity IC50 HCT-116
Protocol: Anti-proliferative activities of the target compounds were assessed via the standard MTT method[38–40] against three cancer cell lines, namely, hepatocellular carcinoma (HepG-2), colorectal carcinoma (HCT-116), and human breast adenocarcinoma (MCF-7). Doxorubicin was used in this test as a positive control.
Anti-proliferative activity of the synthesised compounds was estimated using the MTT assay protocol[8]^,[38–40] as shown in Supplementary data.
4.2.1. In vitro anti-proliferative activity against MCF-7, HepG-2 and HCT-116 The cells were cultured in RPMI-1640 medium supplemented with 10% fetal bovine serum (FBS), penicillin (100 unit /mL) and streptomycin sulphate (100µg/mL) at 37 °C in a 5% CO2 incubator.
Then, cells were dropped in 96-well plates at a density of 3-8 × 10^3 cells/well and incubated for two days in a 5% CO2 incubator at 37 °C. Then, the cells were treated with the synthesized compounds and the cell cultures were continued incubated for 24 h. However, Different concentrations of the compound under test (0.0, 5.0, 12.5, 25.0 and 50 mg/ml) were added to the cell monolayer. Then, (3-[4,5-dimethylthiazol-2-yl]- 2,5-diphenyltetrazolium bromide) MTT solution (20 µl, 5mg/mL) was added to each well and incubated for additional 4 h. The formed purple crystals of MTT-formazan were dissolved in 100 µl DMSO each well; the absorbance of each well was measured at 570 nm using a plate reader (EXL 800, USA). All of the compounds were tested three times. The relative cell viability in percentage was calculated. The results for IC50 values of the active compounds are […]
as §1
of the cells could survive. […]

[4] = Histopathological examination of liver tissues of SEC-bearing mice; assay type: in vivo, Swiss albino mice; details: H&E stain, ×200
Protocol: as §2
Specimens of liver-sacrificed mice were fixed in 10% saline formalin. The fixed liver specimens were dehydrated in ascending series of ethyl alcohol and embedded in paraffin. Sections at […] thicknesses were stained with haematoxylin and eosin and examined under the light microscope.

[5] = Hematological and biochemical blood assays in SEC-bearing mice; assay type: in vivo, Swiss albino mice; details: 5 mg/kg BW, Mean ± SEM (n = 7)
Protocol: At the end of the experiment, animals from different groups were sacrificed, and blood samples were collected for hematological parameters, including Hb, RBC’s, and WBC’s levels, and serum for determination of liver enzymes ALT, AST levels, and proteins.
as §2
At the end of the experiment, animals from different groups were sacrificed, and blood samples were collected for hematological parameters including, Hb, RBC’s, and WBC’s levels, and serum for determination of liver enzymes ALT, AST levels, and proteins. Complete blood count (CBC) was investigated using the Abbott CELL-DYN®1800 automated haematology analyser (USA) using ready-made kits (Abbott Laboratories, Abbott Park, IL, USA). Activities of aspartate aminotransferase (AST) and alanine aminotransferase (ALT) were evaluated using commercial kits (ELITech clinical systems, France). Serum albumin level was determined by kit purchased from STANBIO Company (USA). Protein content was determined by colorimetric method using ready-made kits produced by Instrumentation Laboratory SpA, Inova diagnostics, Milano, Italy.

IC50 [1]: 31.3 ± 1.8 µM
Hb [5]: 7.82 ± 0.27 g/dL
RBCs count [5]: 5.26 ± 0.38 ×10^6/µL
Total Protein [5]: 6.73 ± 0.26 g/dL
WBCs count [5]: 4.11 ± 0.57 ×10^3/µL
SMILES: COc1cccc2c1C(=O)c1c(O)c3c(c(O)c1C2=O)C[C@@](O)(C(=O)CO)C[C@@H]3O[C@H]1C[C@H](N)[C@H](O)[C@H](C)O1 [Doxorubicin, reference compound]
tumour volume [2]: 22 mm^3
reduction of the increase in solid tumour mass ([2]; compared to SEC control): 59.8%
solid tumour mass ([2]; SEC control 194 mg): 78 mg
IC50 [3]: 9.62 ± 0.5 µM
Histopathological finding in liver tissue [4]: tissue enhancement like normal group, but still, some hydropic degeneration, pyknosis (arrows) and karyolysis (arrowhead) were shown
